Source: patent EP0576227A2, “2'-Deoxy-2',2'-difluoro(2,6,8-substituted) purine nucleosides having anti-viral and anti-cancer activity and intermediates” (ELI LILLY AND COMPANY, priority 1992, dated 1993)
Values after ≈ are worked out from the molar mass of the structure shown.

How the values were obtained:
[1] = test system: human leukemia cells (CCRF-CEM cell line); assay: Growth inhibition of human leukemia cells (CCRF-CEM cytotoxicity screen); format: cell-based; conditions: concentration giving 50 percent growth inhibition; CCRF-CEM cell line
Source text: In another aspect, the invention provides a method of treating susceptible neoplasms in mammals comprising administering to a mammal in need of such treatment a pharmaceutically effective amount of a compound of formula (I). […] The treatment contemplated by the present method includes both medical therapeutic and prophylactic treatment, as appropriate. The specific dosage level of the compound administered according to this invention will, of course, be determined by the circumstances surrounding the case, including, for example, the particular compound administered, the route of administration, and the condition being treated. The compounds are effectively administered orally, topically, or parenterally. […] The representative compounds of formula (I) employed in the present invention are cytotoxic as they inhibit the growth of rapidly dividing human leukemia cells (CCRF-CEM cell line). Table 1 below gives the results of testing several compounds representative of formula (I).

[2] = test system: Human Cytomegalovirus (HCMV) strain AD169; assay: Human Cytomegalovirus Test (plaque inhibition in WI-38 cells); format: cell-based; conditions: read-out: Percent Plaque Inhibition at Specified µg/ml conc.
Procedure: WI-38 cells (American Type Culture Collection; CCL-35) were seeded into 24-well plates in MEM media (GIBCO) supplemented with 10% fetal bovine serum and penicillin/streptomycin. The plates wre incbated at 37°C, in 5 percent carbon dioxide in a humidified incubator for 3 days. Human Cytomegalovirus (HCMV) strain AD169 (American Type Culture Collection) was added to each well (40 plaque forming unites in 100 µl of media) and the virus was allowed to adsorb to the cells for 2 hours at room temperature. The compound of Example 5 was dissolved in 100 percent dimethylsulfoxide at a concentration of 20 mgs/ml and diluted with media to yield final concentrations of 50, 25, 12.5, 6.25, 3.13, 1.6, 0.8, 0.4, 0.2, and 0.1 µg/ml in one set of experiments and 32, 10, 3.2, 1, and 0.32 µg/ml in another set of experiments. Each concentration was done in duplicate. In all experiments, Cytovene (DHPG) was used as a positive control.
The infected cells were incubated for 10 days at 37°C, 5 percent carbon dioxide, in an humidified incubator without changes of media. After incubation, the cells were fixed for at least 15 minutes with 10 percent formalin and rinsed with water. After rinsing, the cells were stained for at least 15 minutes with crystal violet and allowed to dry. HCMV induced plaques were counted with the aid of an iverted microscope. The number of viral plaques appearing in cells treated with each concentration of the Example 5 compound was compared to the number of viral plaques in cells left untreated ("no-drug control") and the percent inhibition of viral plaque formation was calculated. The concentration of the Example 5 compound required to inhibit viral plaque formation by 50 percent was determined using linear regression analysis.

[3] = test system: HC1 human colon carcinoma; assay: HC1 human colon carcinoma xenograft in mice, tumor weight inhibition; format: in vivo, Nu/Nu CD-1 mice; conditions: Intra-Peritoneal 0.5 ml, Daily X 10
Source text: The HC1 human colon carcinoma xenograft was obtained in 1987 from Drs. Peter and Janet Houghton, St. Jude Children's Hospital, Memphis, TN. The tumor is a moderately well-differentiated adenocarcinoma of the ascending colon [British Journal of Cancer, 37, p 213-223 (1987)]. The first passage tumor was stored in liquid nitrogen using standard techniques. The tumors were maintained in serial passage Nu/Nu CD-1 mice (Charles River Laboratories, Portage, MI.).
The study testing the efficacy of these compounds against HC1 human colon carcinoma was initiated by removing a tumor from passage animals and mincing it into 1 to 3 mm square fragments using sterile techniques. Tumor pieces were checked for sterility using both an Antibiotic Medium 1 and Brain Heart Infusion (Difco; Detroit, MI). Tumor pieces were implanted subcutaneously in the auxilary region of recipient mice by trocar. Drug therapy on the appropriate schedule was initiated 14 days after tumor implantation. Drugs were dissolved in Emulphor for all experiments. All animals were weighed at the beginning and end of drug treatment. Food and water were provided ad libitum. On day 14 after the initiation of therapy, two dimensional measurements (width and length) of all tumors were taken using electronic calipers interfaced to a computer. Tumor weights were calculated from these measurements using the following formula: Tumor Weight (mg) = Tumor Length (mm) X Tumor Width (mm)²/2
For all data, the tumor weight was rounded to the nearest tenth of a gram for analysis. No group is included in the analysis for therapeutic activity in which deaths attributable to drug toxicity exceeded 20 percent of the treated group. Compounds are considered active if more than 60 percent inhibition of tumor growth, as determined by tumor weight, is achieved at maximally tolerated doses.
In Table 2 which follows, Column 1 gives the example number of the compound tested; Column 2, the dose level; Column 3, the route administered; Column 4, the dosage schedule; Column 5, the percent inhibition of the tumor; and Column 6; the toxic deaths observed prior to completion of the study.

Hepatitis B Virus = Hepatitis B Virus Test (HBV DNA in supernatant of Hep10A cells, PCR / Southern blot); format: cell-based, human Hepatitis B Virus (HBV); conditions: 240 h
Source text: Plasmids were constructed using standard recombinant DNA techniques; see Sambrook, J., et al., Molecular Cloning: A Laboratory Manual, 2nd Edition (1989), Cold Spring Harbor Press, Cold Spring Harbor, NY. Plasmid pTHBV contains a head-to-tail dimer of the human Hepatitis B Virus (HBV) genome, subtype adw, clone into the EcoR I site of pUC9. […] and subcloned into the Sal I site of pTHBV after a two base fill-in reaction with the Klenow fragment of E. coli DNA polymerase I.
HepG2 cells (human hepatoblastoma, ATCC HB 8065) were routinely passaged in growth medium consisting of EARLE'S minimal essential media (Grand Island Biological Company (GIBCO) Bethesda Research Laboratories (BRL), Life Technologies, Inc., Gathersburg, MD.) supplemented with sodium pyruvate, 10 percent fetal bovine serum, 100 units/ml penicillin, and 100 µg/ml streptomycin. Hep10A cells were derived from HepG2 cells. Briefly, HepG2 cells were seeded into 60 mm culture dishes in growth medium, and when approximately 50 percent confluent, were transfected with pTHBVneo using the calcium phosphate precipitation method described by Graham, F.L. and Van der Eb in Virology, 52, p 456-467 (1973). After four hours of post-transfection, the cells were shocked with 10 percent dimethylsulfoxide and 20 percent glucose for 5 minutes, after which they were allowed to recover for 24 horus. The transfected cells were passaged and reseeded in the presence of growth medium containing 800 µg/ml geneticin. The cells were monitored for the appearance of geneticin resistant cells. A genecitin resistant cell line was established, and routinely passaged in growth medium containing 400 µg/ml geneticin. This cell line will be referred to as Hep10A.
Hep10A cells were seeded into 96-well microtiter plates at a density of approximately 50,000 cells per well, allowed to grow to confluence, and maintained at confluence for 2 to 4 days to allow Hepatitus B Virus derivative HBV DNA levels to stabilize; see Sells, M.A., et al., J. Virol., 62, p 2836-2844 (1987) and Korba, B.E., et al., Antiviral Res., 15, p 217-228 (1991). At this time, cells were treated with 2'-deoxy-2'-fluoroarabino-5-iodouridine (FIAU) and the compound of Example 5 for 10 days, with daily changes of media containing fresh drug. FIAU was used as a positive control. On day 10, culture supernatant samples were taken and stored at 4°C until needed. PCR analysis was performed on supernatant samples using appropriate primers to amplify a 477 base pair fragment from the "a" determinant of the surface antigen gene of HBV subtype adw. Following eletrophoresis through agarose gels, the DNA was transferred to nylon membranes (Optiblot™, IBI, New Haven, CT) by capillary action (Southern, 1975) using 1X saline sodium citrate (SSC) (1X SSC=0.15 M NaCl, 0.015 M sodium citrate). After baking in vacuo for 30 minutes, the blots were hybridized for 15 to 18 hours to 1x10⁶ cpm/ml of […] the method of random priming (Feinberg and Vogelstein, 1983). Hybridization was carried out at 42°C using 50 percent N,N-dimethylformamide, 6X saline sodium phosphate ethylenediamine tetraacetic acid (SSPE), 1.0 percent sodium dodyl sulfate (SDS), and 50 µg/ml salmon sperm DNA (1X SSPE=0.18 M NaCl; […] NaH₂PO₄, pH 7.4; 1 mmol ethylene diamine tetraacetic acid (EDTA)). The hybridized blots were washed as follows: twice in 2X SSC/0.1 percent SDS at room temperature for 1 hour, once in 0.1X SSC/0.1 percent SDS at room temperature for 30 minutes, and once in 0.1x SSC/0.1 percent supplemented with SDS at 65°C for 15 minutes. The filters were exposed to x-ray film and quantitated by densitometry.

[4] = read-out: Percent Inhibition at Specified µg/ml conc.

For Nc1nc(S)c2ncn([C@@H]3O[C@H](CO)[C@@H](O)C3(F)F)c2n1 [(h), 2-deoxy-2,2-difluoro-D-ribofuranosyl-1-β-(2-amino-6-thiopurine)], the “IC50” value [1] was 4.3 µg/mL (≈ 13.5 µM).
Compound Nc1nc2c(ncn2COC(CO)CO)c(=O)[nH]1 [Cytovene] has an inhibition at 0.2 µg/mL ([2]; Human betaherpesvirus 5, AD169, 240 h, 0.2 µg/ml, WI-38 cells, 10 days) of 31%, an inhibition at 0.4 µg/mL ([2]; Human betaherpesvirus 5, AD169, 240 h, 0.4 µg/ml, WI-38 cells, 10 days) of 31% and an inhibition at 0.8 µg/mL ([2]; Human betaherpesvirus 5, AD169, 240 h, 0.8 µg/ml, WI-38 cells, 10 days) of 40%. It also gave an inhibition at 1.6 µg/mL ([2]; Human betaherpesvirus 5, AD169, 240 h, 1.6 µg/ml, WI-38 cells, 10 days) of 65.5%, an inhibition at 6.25 µg/mL ([2]; Human betaherpesvirus 5, AD169, 240 h, 6.25 µg/ml, WI-38 cells, 10 days) of 98% and an inhibition at 12.5 µg/mL ([2]; Human betaherpesvirus 5, AD169, 240 h, 12.5 µg/ml, WI-38 cells, 10 days) of 100%. The inhibition at 25 µg/mL ([2]; Human betaherpesvirus 5, AD169, 240 h, 25 µg/ml, WI-38 cells, 10 days) was 100%, the inhibition at 50 µg/mL ([2]; Human betaherpesvirus 5, AD169, 240 h, 50 µg/ml, WI-38 cells, 10 days) was 100% and the inhibition at 3.12 µg/mL ([2]; Human betaherpesvirus 5, AD169, WI-38, 240 h) was 91%.
Nc1nc(Cl)c2ncn([C@@H]3O[C@H](CO)[C@@H](O)C3(F)F)c2n1 [Example 1, 2-deoxy-2,2-difluoro-D-ribofuranosyl-1-β-(2-amino-6-chloropurine)] was tested, and the “IC50” value [1] was 0.007 µg/mL (≈ 0.0218 µM).
For COc1nc(N)nc2c1ncn2[C@@H]1O[C@H](CO)[C@@H](O)C1(F)F [Example 2, 2-deoxy-2,2-difluoro-D-ribofuranosyl-1-β-(2-amino-6-methoxypurine)], the “IC50” value [1] was 0.037 µg/mL (≈ 0.117 µM).
In the case of CCOc1nc(N)nc2c1ncn2[C@@H]1O[C@H](CO)[C@@H](O)C1(F)F [Example 3, 2-deoxy-2,2-difluoro-D-ribofuranosyl-1-β-(2-amino-6-ethoxypurine)], the “IC50” value [1] was 0.2 µg/mL (≈ 0.604 µM), the “Percent Inhibition of Tumor” value ([3]; 25 mg/kg) was 98% and the “Toxic Deaths” value ([3]; 25 mg/kg) was 0/10. For the same compound, the “Percent Inhibition of Tumor” value ([3]; 50 mg/kg) was 97%, the “Toxic Deaths” value ([3]; 50 mg/kg) was 0/10 and the “Percent Inhibition of Tumor” value ([3]; 100 mg/kg) was 98%. For the same compound, the “Toxic Deaths” value ([3]; 100 mg/kg) was 0/10.
CN(C)c1nc(N)nc2c1ncn2[C@@H]1O[C@H](CO)[C@@H](O)C1(F)F [Example 4, 2-deoxy-2,2-difluoro-D-ribofuranosyl-1-β-(2-amino-6-dimethylaminopurine)] was tested, and the “IC50” value [1] was 4.6 µg/mL (≈ 13.9 µM).
For Nc1nc(I)c2ncn([C@@H]3O[C@H](CO)[C@@H](O)C3(F)F)c2n1 [Example 6, 2-deoxy-2,2-difluoro-D-ribofuranosyl-1-β-(2-amino-6-iodopurine)], the “IC50” value [1] was 0.093 µg/mL (≈ 0.225 µM).
For N#Cc1nc(N)nc2c1ncn2[C@@H]1O[C@H](CO)[C@@H](O)C1(F)F [Example 7, 2-deoxy-2,2-difluoro-D-ribofuranosyl-1-β-(2-amino-6-cyanopurine)], the “IC50” value [1] was 2.5 µg/mL (≈ 8.01 µM).
For Nc1nc(O)nc2c1ncn2[C@@H]1O[C@H](CO)[C@@H](O)C1(F)F [Example 9, 2-deoxy-2,2-difluoro-D-ribofuranosyl-1-β-(2-hydroxyadenosine)], the “IC50” value [1] was 0.7 µg/mL (≈ 2.31 µM).
Nc1nc(F)nc2c1ncn2[C@@H]1O[C@H](CO)[C@@H](O)C1(F)F [Example 10, 2-deoxy-2,2-difluoro-D-ribofuranosyl-1-β-(2-fluoroadenosine)] was tested, and the “IC50” value [1] was 0.094 µg/mL (≈ 0.308 µM).
OC[C@H]1O[C@@H](n2cnc3cncnc32)C(F)(F)[C@@H]1O [Example 11, 2-deoxy-2,2-difluoro-D-ribofuranosyl-1-β-purine] was tested, and the “IC50” value [1] was 1.3 µg/mL (≈ 4.78 µM).
With Cc1nc(N)nc2c1ncn2[C@@H]1O[C@H](CO)[C@@H](O)C1(F)F [Example 13, 2-deoxy-2,2-difluoro-D-ribofuranosyl-1-β-(2-amino-6-methylpurine)] the “IC50” value [1] was 2.6 µg/mL (≈ 8.63 µM).
In the case of O=c1[nH]c(=O)n([C@@H]2O[C@H](CO)[C@@H](O)[C@@H]2F)cc1I [FIAU, 2'-deoxy-2'-fluoroarabino-5-iodouridine, reference compound], the inhibition at 0.1 µg/mL (Hepatitis B Virus; [4]) was 10.8%, the inhibition at 1 µg/mL (Hepatitis B Virus; [4]) was 35.5% and the inhibition at 10 µg/mL (Hepatitis B Virus; [4]) was 65.3%. The inhibition at 100 µg/mL (Hepatitis B Virus; [4]) was 81.7% and the IC50 (Hepatitis B Virus; read-out: concentration required to inhibit HBV DNA replication by 50 percent) was 5.4 µg/mL (≈ 14.5 µM).
